Article PMC10250618, “Synthesis, structure-activity relationships and biological evaluation of benzimidazole derived sulfonylurea analogues as a new class of antagonists of P2Y1 receptor” (Frontiers in Pharmacology, 2023)
Read-outs that look alike come from different tables or passages of the source.

Experiments:
[1] = target: T1, t-P2Y1 (Meleagris gallopavo, UniProt P49652); assay: Calcium mobilization assay, t-P2Y1 transfected 1321N1 astrocytoma cells; format: cell-based; conditions: 100 μM ADP; for inhibition at 100 µM: 1321-N1, final conc of 100 μM; for IC50: Ca2+ mobilization inhibition, transfected 1321N1 cells, read-out: IC50 ± SEM t-P2Y1
T1 construct: host or cells: human 1321N1 astrocytoma cells, stably transfected
T1 sequence (P49652 whole entry): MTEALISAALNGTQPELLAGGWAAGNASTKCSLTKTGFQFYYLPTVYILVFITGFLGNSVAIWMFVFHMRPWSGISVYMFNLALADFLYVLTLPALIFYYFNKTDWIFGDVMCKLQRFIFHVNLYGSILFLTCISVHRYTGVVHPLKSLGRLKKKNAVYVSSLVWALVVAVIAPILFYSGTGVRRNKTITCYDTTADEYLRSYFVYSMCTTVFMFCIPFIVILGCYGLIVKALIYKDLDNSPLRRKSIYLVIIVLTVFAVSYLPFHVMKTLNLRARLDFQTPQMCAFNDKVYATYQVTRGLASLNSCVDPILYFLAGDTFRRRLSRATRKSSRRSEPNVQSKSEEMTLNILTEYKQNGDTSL
Procedure: (§1) Dr. Gary A. Weisman provided human-1321N1 astrocytoma cells that had been transfected by the tP2Y1R, hP2Y2R, hP2Y4R, and rP2Y6R and untransfected 1321N1 astrocytoma cells (University of Missouri Mo., Bond Life Science Center). The DMEM Dulbecco’s Modified Eagle -Medium (Gibco) was added in flasks to cultivate the cell line. 10% of the Fetal bovine serum was also added to the media together with 500 μg/mL of Geneticin (G418) and 1% of the Pen/Strep. The cells in T-75 flask were then cultured and incubated in a CO2 incubator which was maintained at (5%) and 37°C temperature until 90% of the cells were confluent. Throughout the experiment, cells were periodically checked for the confluency and strictly watched for the microbial contamination.
(§2) The FLUOstar Galaxy (BMG LABTECH GmbH, Ortenberg, Germany) microplate reader with two injectors was used to measure the Ca^2+ fluorescence of synthetic compounds. For this assay, 1321N1 transfected cells (t-P2Y1, h-P2Y2, h-P2Y4, and r-P2Y6) were cultured in T-75 flask. When cells reached the confluency of 80%–90%, they were washed with PBS and then Trypsin was added. After trypsinization for 3 min, 20,000 cells/well were allowed to seed in a black wall and 96 well clear bottom plate which was coated with Poly-D-Lysine and allowed to incubate for 24 h in 37°C, 5% CO2 incubator. After incubation, 200 μL culture media was changed with 100 μL HBSS containing Fura-2 AM which is calcium chelating dye and allowed the plate to incubate for 45 min in dark at temp of 37°C in incubator which is maintained with carbon dioxide (5% CO2). After incubation for 45 min, synthesized molecules were added to HBSS washed cells in each well of 96 well plate and re-incubated for 30 min at 37°C. In next step, injection of the endogenous ligand such as ADP through the injector was followed by excitation and emission measurements of Fura-2 AM at 380/520 nm and 340/520. Final volume of the assay per well 200 μL. IC50 values were computed for the compounds displaying more than 50% of activity using Prism 5.0 software (Graph Pad., Inc., San Diego. California, United States) by using analysis i.e., nonlinear regression ([Kassack et al., 2002]; [Ullmann et al., 2005]).

[2] = MTT assay, HeLa; format: cell-based; conditions: human, HeLa cells; at 50 µM; triplicate; read-out: HeLa Cell Line (%cytotoxicity ±SEM)
[3] = MTT assay, non-transfected 1321N1 astrocytoma cells; format: cell-based, human; conditions: human, non-transfected 1321N1 astrocytoma cells; at 50 µM; non-transfected astrocytoma 1321N1 cells; triplicate; read-out: H-1321N1 Cell Line (%cytotoxicity ±SEM)
Procedure: A 96-well plate was used to plate 20,000 human 1321N1 astrocytoma cells and allowed for incubation for 24 h at temp of 37°C in CO2 (5%) incubator. Next to this, the prepared culture media was changed to media which was free from FBS, the test compounds were added and the incubation process was repeated. After incubation of 24 h, the serum free media from the wells was discarded, and 100 μL of the reagent i.e., MTT reagent was pipetted. Plate was then additionally incubated at 37°C for 4 h. Utilizing a microplate reader, absorbance was determined at 570 nm and 630 nm for calculation of cell viability (FLUOstarOmega Microplate Reader-BMG LABTECH GmbH, Ortenberg, Germany) ([Sauer et al., 2009]).

[4] = target: T2, r-P2Y6 (Rattus norvegicus, UniProt Q63371); assay: Calcium mobilization assay, r-P2Y6 transfected 1321N1 astrocytoma cells; format: cell-based; conditions: 100 μM of UDP; for inhibition at 100 µM: 1321-N1, final conc of 100 μM; for IC50: Ca2+ mobilization inhibition, transfected 1321N1 cells, read-out: IC50 ± SEM r-P2Y6
T2 construct: host or cells: human 1321N1 astrocytoma cells, stably transfected
T2 sequence (Q63371 whole entry): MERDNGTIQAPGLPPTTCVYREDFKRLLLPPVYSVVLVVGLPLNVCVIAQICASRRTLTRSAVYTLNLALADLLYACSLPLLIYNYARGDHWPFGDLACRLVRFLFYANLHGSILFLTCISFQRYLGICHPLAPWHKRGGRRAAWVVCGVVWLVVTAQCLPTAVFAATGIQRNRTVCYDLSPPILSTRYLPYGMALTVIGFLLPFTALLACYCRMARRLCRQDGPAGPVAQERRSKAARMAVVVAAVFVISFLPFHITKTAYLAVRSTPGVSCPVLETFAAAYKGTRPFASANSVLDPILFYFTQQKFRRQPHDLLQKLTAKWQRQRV
Procedure: as §1, §2

[5] = target: T3, h-P2Y4 (Homo sapiens, UniProt P51582); assay: Calcium mobilization assay, h-P2Y4 transfected 1321N1 astrocytoma cells; format: cell-based; conditions: for inhibition at 100 µM: 1321-N1, final conc of 100 μM, read-out: % Inhibition h-P2Y4
T3 construct: host or cells: human 1321N1 astrocytoma cells, stably transfected
T3 sequence (P51582 whole entry): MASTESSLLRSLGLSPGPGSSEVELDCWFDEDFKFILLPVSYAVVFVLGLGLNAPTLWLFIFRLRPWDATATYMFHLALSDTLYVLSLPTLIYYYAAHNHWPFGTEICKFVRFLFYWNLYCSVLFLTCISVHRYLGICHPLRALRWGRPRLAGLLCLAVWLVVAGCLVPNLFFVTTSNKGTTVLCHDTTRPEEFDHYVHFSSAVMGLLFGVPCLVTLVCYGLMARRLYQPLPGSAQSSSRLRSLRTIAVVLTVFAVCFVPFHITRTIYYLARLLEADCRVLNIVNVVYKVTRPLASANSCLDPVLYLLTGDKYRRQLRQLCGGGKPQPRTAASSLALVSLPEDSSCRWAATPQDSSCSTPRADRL
Procedure: as §1, §2

[6] = target: T4, h-P2Y2 (Homo sapiens, UniProt P41231); assay: Calcium mobilization assay, h-P2Y2 transfected 1321N1 astrocytoma cells; format: cell-based; conditions: for inhibition at 100 µM: 1321-N1, final conc of 100 μM
T4 construct: host or cells: human 1321N1 astrocytoma cells, stably transfected
T4 sequence (P41231 whole entry): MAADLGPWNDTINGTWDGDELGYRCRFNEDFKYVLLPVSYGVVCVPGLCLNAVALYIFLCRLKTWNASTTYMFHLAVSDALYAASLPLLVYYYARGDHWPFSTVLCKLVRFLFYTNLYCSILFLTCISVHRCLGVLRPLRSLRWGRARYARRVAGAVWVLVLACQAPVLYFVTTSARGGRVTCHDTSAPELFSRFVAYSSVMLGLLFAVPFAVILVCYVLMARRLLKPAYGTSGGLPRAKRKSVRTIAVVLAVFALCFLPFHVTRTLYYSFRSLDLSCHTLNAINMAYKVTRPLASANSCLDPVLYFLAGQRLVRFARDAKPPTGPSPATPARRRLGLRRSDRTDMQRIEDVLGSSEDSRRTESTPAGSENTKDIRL
Procedure: as §1, §2

[7] = MTT assay, HEK-293; format: cell-based; conditions: human, HEK-293 cells; at 50 µM; triplicate; read-out: HEK-293 Cell Line (%cytotoxicity ±SEM)
[8] = Ca2+ mobilization inhibition, transfected 1321N1 cells, 500 μM ATP, read-out: IC50 ± SEM h-P2Y2

Compound | inhibition at 100 µM [1] | cytotoxicity at 24 h, 50 µM [2] | cytotoxicity at 24 h, 50 µM [3] | inhibition at 100 µM [4] | melting point | inhibition at 100 µM ([5]; 500 μM UTP) | inhibition at 100 µM ([6]; 500 μM ATP) | cytotoxicity at 24 h, 50 µM [7] | IC50 [1] | IC50 [6, 8] | IC50 [4] | IC50 ([5]; Ca2+ mobilization inhibition, transfected 1321N1 cells, 500 μM UTP, read-out: IC50 ± SEM h-P2Y4) | IC50 [5] | IC50 [6]
COc1ccc(S(=O)(=O)NC(=O)n2c(OC)nc3ccccc32)cc1 [1u, 2-Methoxy-N-((4-methoxyphenyl)sulfonyl)-1H-benzo [d]imidazole-1-carboxamide] | 31% | 21.7 ± 0.6% | 25.5 ± 0.3% | 18% | 177 to 179 °C | 30% | 10% | 32.2 ± 0.9% | – | – | – | – | – | –
O=C(NS(=O)(=O)c1ccccc1)n1c(Cl)nc2ccccc21 [1q, 2-Chloro-N-(phenylsulfonyl)-1H-benzo [d]imidazole-1-carboxamide] | – | 29.7 ± 1.1% | 33.6 ± 0.7% | 48% | 179 to 181 °C | 13% | – | 30.1 ± 0.2% | 14.6 ± 1.01 µM | 13.6 ± 1.97 µM | – | – | – | –
O=C(NS(=O)(=O)c1ccc(Cl)cc1)n1c(Cl)nc2ccccc21 [1s, 2-Chloro-N-((4-chlorophenyl)sulfonyl)-1H-benzo [d]imidazole-1-carboxamide] | – | 19.5 ± 0.2% | 14.4 ± 0.2% | – | 180 to 182 °C | – | – | 12.1 ± 0.7% | 3.11 ± 0.23 µM | 6.15 ± 1.08 µM | 12.7 ± 1.02 µM | 2.67 ± 0.07 µM | – | –
Cc1ccc([N+](=O)[O-])cc1S(=O)(=O)NC(=O)n1c(N)nc2cc(Cl)ccc21 [1j, 2-Amino-5-chloro-N-((2-methyl-5-nitrophenyl)sulfonyl)-1H-benzo [d]imidazole-1-carboxamide] | – | 26.1 ± 0.7% | 44.3 ± 0.6% | – | 144 to 146 °C | 42% | 32% | 38.2 ± 0.4% | 13.4 ± 0.22 µM | – | 25.4 ± 3.1 µM | – | – | –
O=C(NS(=O)(=O)c1ccc(Cl)cc1)n1c(-c2ccccc2)nc2ccccc21 [1n, N-((4-chlorophenyl)sulfonyl)-2-phenyl-1H-benzo [d]imidazole-1-carboxamide] | – | 22.4 ± 0.8% | 26.5 ± 0.4% | – | 158 to 160 °C | 19% | 21% | 38.7 ± 0.3% | 5.69 ± 0.23 µM | – | 7.06 ± 1.47 µM | – | – | –
O=C(NS(=O)(=O)c1ccc([N+](=O)[O-])cc1)n1c(-c2ccccc2)nc2ccccc21 [1o, N-((4-nitrophenyl)sulfonyl)-2-phenyl-1H-benzo [d]imidazole-1-carboxamide] | 46% | 24.3 ± 0.4% | 24.3 ± 0.8% | 32% | 162 to 164 °C | 46% | – | 27.9 ± 0.8% | – | 18.2 ± 0.77 µM | – | – | – | –
Cc1ccc(S(=O)(=O)NC(=O)n2c(N)nc3cc(Cl)ccc32)cc1 [1x, 2-Amino-5-chloro-N-tosyl-1H-benzo [d]imidazole-1-carboxamide] | – | 29.8 ± 1.5% | 12.6 ± 0.5% | 41% | 188 to 190 °C | 29% | 38% | 32.1 ± 0.7% | 10 ± 0.12 µM | – | – | – | – | –
O=C(NS(=O)(=O)c1ccc(-c2ccccc2)cc1)n1c(-c2ccccc2)nc2ccccc21 [1l, N-([1.1′-biphenyl]-4-ylsulfonyl)-2-phenyl-1H-benzo [d]imidazole-1-carboxamide] | 27% | 28.3 ± 1.2% | 47.2 ± 0.4% | 43% | 133 to 135 °C | 22% | 34% | 21.3 ± 0.6% | – | – | – | – | – | –
O=C(NS(=O)(=O)c1ccccc1)n1c(-c2ccccc2)nc2ccccc21 [1m, 2-Phenyl-N-(phenylsulfonyl)-1H-benzo [d]imidazole-1-carboxamide] | 29% | 39.4 ± 1.3% | 37.9 ± 0.7% | 21% | 154 to 156 °C | 16% | 37% | 33.3 ± 0.3% | – | – | – | – | – | –
COc1nc2ccccc2n1C(=O)NS(=O)(=O)c1ccc(Cl)cc1 [1v, N-((4-chlorophenyl)sulfonyl)-2-methoxy-1H-benzo [d]imidazole-1-carboxamide] | 42% | 24.1 ± 0.3% | 19.7 ± 0.1% | 19% | 152 to 154 °C | 23% | 19% | 12.2 ± 0.7% | – | – | – | – | – | –
O=C(NS(=O)(=O)c1ccc([N+](=O)[O-])cc1)n1c(Cl)nc2ccccc21 [1t, 2-Chloro-N-((4-nitrophenyl)sulfonyl)-1H-benzo [d]imidazole-1-carboxamide] | – | 20.3 ± 0.4% | 27.6 ± 0.4% | – | 166 to 168 °C | 26% | 42% | 21.4 ± 1.1% | 6.04 ± 1.03 µM | – | 12.4 ± 1.1 µM | – | – | –
Nc1c(S(=O)(=O)O)cc(Nc2ccc(Nc3nc(Cl)nc(Nc4cccc(S(=O)(=O)O)c4)n3)c(S(=O)(=O)O)c2)c2c1C(=O)c1ccccc1C2=O [Reactive Blue 2, reference compound] | – | – | – | – | – | – | – | – | – | – | 2.8 ± 0.11 µM | – | 8.4 ± 1.2 µM | 0.57 ± 0.02 µM
